Reference: patent publication US9265189B2, “Method for reducing damage by harmful organisms in corn cultivation” (SUMITOMO CHEMICAL COMPANY, LIMITED, priority 2012, dated 2016)

How the values were obtained:
Type in all cases: in vivo
Agriotes sordidus = assay: Field test, corn plants damaged by Agriotes sordidus after in-furrow spray (Example 3); settings: Example section 3: clothianidin 25 g/ha, in-furrow spray of Dantop 50WG aqueous suspension 100 L/ha, corn KUBRIK, 34 days after application; non-treatment section 34.6
Experimental: A cultivated land was ditched at intervals of 75 cm to a depth of 3 cm from the soil surface, and the furrow was seeded with corn (Zea Mays, variety name: KUBRIK; hybrid variety) at intervals of 17 cm. A seeding density of corn was 78000 seeds/ha. Then, the furrow was spray-treated with an aqueous suspension of a clothianidin water dispersible granule (using a 50% water dispersible granule, trade name: Dantop 50WG, manufactured by Philagro) at 100 L/ha so that the application amount of clothianidin was 25 g/ha, and then a soil on the side of the furrow was gathered together to close the furrow. This was defined as an example section 3. For comparison, a non-treatment section, which was seeded with corn without application of a clothianidin water dispersible granule, was provided. In any section, four places were arranged by a randomized block method, with one place having an area of 54 m^2 (18 m×3 m). 34 days after application of the clothianidin water dispersible granule, the number of plants of corn damaged by Agriotes sordidus in each of the example section 3 and the non-treatment section was investigated, a damage plant rate was calculated in accordance with the following equation, and then an average damage plants rate of the four investigation sections was determined. Damage plant rate(%)=[(number of plants of corn damaged)/(number of plants of corn seeded)]×100

[1] = system: Diabrotica virgifera virgifera and Agriotes lineatus; assay: Field test, corn lodged due to damage by Diabrotica virgifera virgifera and Agriotes lineatus (Example 4); settings: Example section 4: clothianidin 80 g/ha, in-furrow spray of Dantop 50WG 125 L/ha, corn DKC 5143 seed treated with Maxim XL, 165 days after application; non-treatment section 23
Experimental: Ammonium phosphate (N:P:K=12:52:0) and urea (N:P:K=46:0:0), each of which being a fertilizer, were applied to the soil surface of a cultivated land at 100 kg/ha and 260 kg/ha, respectively, and the cultivated land was plowed. 24 days after fertilization, using a pneumatic seeder (disk furrow opener) equipped with a power sprayer, a cultivated land was ditched at intervals of 75 cm to a depth of 5 cm from the soil surface, and the furrow was seeded with corn (Zea Mays, variety name: DKC 5143; hybrid variety, manufactured by Monsanto). The cultivated land was seeded at intervals of 20 cm using, as a corn seed, one treated with a mixed agent of metalaxyl-M and fludioxonil (trade name: Maxim XL, manufactured by Syngenta). A seeding density of corn was 66667 seeds/ha. […] 165 days after application of the clothianidin water dispersible granule, the number of plants of corn lodged due to damage by Diabrotica virgifera virgifera and Agriotes lineatus in the furrows of the example section 4 and the non-treatment section, for which the number of plants of corn germinated was investigated, was investigated, a lodge rate was calculated in accordance with the following equation, and then an average lodge rate for the four investigation sections was determined. […]

[2] = system: Diabrotica virgifera virgifera and Agriotes lineatus; assay: Field test, lodge rate, clothianidin in-furrow, seed treated with thiuram and cyprosulfamide (Example 9); settings: clothianidin 50 g/ha in-furrow spray 125 L/ha, 165 days after application, example in present tense
Description: A chemical fertilizer (N:P:K=15:15:15) is applied to the soil surface of a cultivated land at 300 kg/ha, and the cultivated land is then plowed. 7 days after fertilization, for suppressing generation of weeds, the soil surface of the whole cultivated land is spray-treated with a mixed liquid containing thiencarbazone-methyl and isoxaflutole, each of which being a herbicide, at 150 L/ha so that the application amounts of thiencarbazone-methyl and isoxaflutole are 9.2 g/ha and 23 g/ha. 21 days after fertilization, using a pneumatic seeder (disk furrow opener) equipped with a power sprayer, a cultivated land is ditched at intervals of 75 cm to a depth of 5 cm from the soil surface, and the furrow is seeded with corn (Zea Mays; hybrid variety). The furrow is seeded at intervals of 20 cm using, as a seed of corn, one treated with thiuram and cyprosulfamide. A seeding density of corn is 70000 seeds/ha. […] 165 days after application of the aqueous suspension of clothianidin, the number of plants of corn lodged due to damage by Diabrotica virgifera virgifera and Agriotes lineatus in the furrows of the treatment section and the non-treatment section, for which the number of plants of corn germinated is investigated, is investigated, a lodge rate is calculated in accordance with the following equation, and then an average lodge rate for the four investigation sections is determined.

Structure (SMILES): CN/C(=N\[N+](=O)[O-])NCc1cnc(Cl)s1 [clothianidin]
- Damage plant rate (%) (Agriotes sordidus): 1.8%
- Lodge rate (%) [1]: 4%
- Lodge rate compared to non-treatment section [2]: low lodge rate as compared to the non-treatment section
